Laboratory results taken from BindingDB's records for patent US11352330 (Hoffmann-La Roche, 2022).

Target: Autotaxin (Homo sapiens, UniProt Q13822)
Test: Human ATX Enzyme Inhibition Assay
Procedure: Assay working solutions were made as follows:Assay buffer (50 mM Tris-HCl, 140 mM NaCl, 5 mM KCl, 1 mM CaCl2, 1 mM MgCl2, 0.01% Triton-X-100, pH 8.0;ATX solution: ATX (human His-tagged) stock solution (1.08 mg/mL in 20 mM bicine, pH 8.5, 0.15 M NaCl, 10% glycerol, 0.3% CHAPS, 0.02% NaN3), diluted to 1.4-2.5× final concentration in assay buffer;MR121 substrate solution: MR121 substrate stock solution (800 μM MR121 substrate in DMSO), diluted to 2-5× final concentration in assay buffer.Test compounds (10 mM stock in DMSO, 8 μL) were obtained in 384 well sample plates (Corning Costar #3655) and diluted with 8 μL DMSO. Row-wise serial dilutions were made by transferring 8 μL cpd solution to the next row up to row O. The compound and control solutions were mixed five times and 2 μL were transferred to 384 well assay plates (Corning Costar #3702). Then, 15 μL of 41.7 nM ATX solution was added (30 nM final concentration), mixed five times and then incubated for 15 minutes at 30° C. 10 μL of MR121 substrate solution was added (1 μM final concentration), mixed 30 times and then incubated for 15 minutes at 30° C.

IC50: 15 nM
Compound: COc1ccccc1-c1cc(Cl)c(C)cc1OCc1n[nH]c(=O)n1C [US11352330, Example B56]
